Columns and labels:
CRF receptor = molecular target: T1, CRF receptor (Homo sapiens, UniProt P34998); assay: CRF Receptor Binding Assay (competition with [125I]Tyr0-ovine CRF, IMR-32 cell membranes); details: Human IMR-32 neuroblastoma cell membranes
T1 construct: Cell membranes are prepared according the method of Dieterich and DeSouza (1996); endogenous in cells; host or cells: IMR-32 human neuroblastoma cells (membrane preparation)
T1 sequence (P34998 24-415): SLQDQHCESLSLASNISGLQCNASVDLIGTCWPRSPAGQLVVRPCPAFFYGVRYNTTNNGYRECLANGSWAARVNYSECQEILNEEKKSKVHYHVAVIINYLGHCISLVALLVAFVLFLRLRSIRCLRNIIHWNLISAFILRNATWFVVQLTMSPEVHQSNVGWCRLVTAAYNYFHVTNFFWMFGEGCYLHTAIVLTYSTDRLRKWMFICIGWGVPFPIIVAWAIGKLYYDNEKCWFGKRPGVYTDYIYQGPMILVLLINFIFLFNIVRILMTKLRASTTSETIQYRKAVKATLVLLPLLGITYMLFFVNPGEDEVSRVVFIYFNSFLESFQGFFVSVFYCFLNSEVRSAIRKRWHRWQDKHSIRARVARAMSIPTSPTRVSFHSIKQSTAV
Protocol: CRF Receptor Binding Assay
Human IMR-32 neuroblastoma cells are grown to 80% confluence in MEM medium containing 10% heat-inactivated FBS, 1 mM sodium pyruvate, and 0.1 mM nonessential amino acids. Cell membranes are prepared according the method of Dieterich and DeSouza (1996). The cells (˜5E+9) are resuspended in 10 volumes of wash buffer (5 mM Tris HCl, 10 mM MgCl2, 2 mM EGTA, pH 7.4 at RT), homogenized with a Polytron, and then centrifuged at 45,000 G for 20 min at 4° C. The membrane pellets are washed twice with wash buffer (45,000 G for 20 min at 4° C.) and then resuspended (50 mM Tris HCl, 10 mM MgCl2, 2 mM EGTA, pH 7.4 at RT). Protein concentration is determined using Pierce reagents and BSA as standard. Aliquots of 1-1.5 mL are stored at −80° C. until binding assay.
The competition binding assay is performed in a final volume of 250 μl, which contains assay buffer (50 mM Tris-HCl, 10 mM MgCl2, 2 mM EGTA, 0.2% BSA, 0.1 mM bacitracin and 100 kIU/mL aprotinin pH 7.2 at R.T.), 0.05 nM [^125I]Tyr^0-ovine CRF (Du Pont New England Nuclear), 50 μg of membrane protein, and test compound at various concentrations. Non-specific binding is determined with 1 uM hCRF. […] Unbound radioactivity is removed by four rapid washes (0.8 ml/well) with wash buffer. The radioactivity is quantified using a Packard TopCount. […]

| melting point [°C] | IC50 (CRF receptor; 0.05 nM [125I]Tyr0-ovine CRF, 2 hr at 25° C.) [nM] | Ki (CRF receptor; pKi values are derived from pIC50 values) [nM] | Compound |
| --- | --- | --- | --- |
| 124 to 126 |  |  | CCC(CC)N1C(=O)CCc2c(C)nc(Nc3ccc(C(C)C)cc3Br)nc21 [Cpd 113, 2-(2-Bromo-4-isopropyl-phenyl-amino)-8-(1-ethyl-propyl)-4-meth-yl-5,8-dihydro-6H-pyrido[2,3-d]py-rimidin-7-one] |
| 92 to 94 |  |  | CCCC(CCC)N1C(=O)CCc2c(C)nc(N(CC)c3ccc(C(C)C)cc3Br)nc21 [Cpd 117, 2-[(2-Bromo-4-isopropyl-phenyl)-eth-yl-amino]-4-methyl-8-(1-propyl-bu-tyl)-5,8-dihydro-6H-pyrido[2,3-d]py-rimidin-7-one] |

Second part, the molecule before the results:

| Compound | melting point [°C] | IC50 (CRF receptor; 0.05 nM [125I]Tyr0-ovine CRF, 2 hr at 25° C.) [nM] | Ki (CRF receptor; pKi values are derived from pIC50 values) [nM] |
| --- | --- | --- | --- |
| CCCC(CCC)N1CCCc2c(C)nc(Nc3ccc(C(C)C)cc3Br)nc21.Cl | 182 to 184 |  |  |
| CCCC(CCC)N1CCCc2c(C)nc(N(CC)c3ccc(C(C)C)cc3Br)nc21.Cl | 201 to 205 |  |  |
| CCC(CC)N1CCc2c(C)nc(N(CC)c3c(C)cc(C)cc3C)nc21 [Cpd 2, Ethyl-[7-(1-ethyl-propyl)-4-meth-yl-6,7-dihydro-5H-pyr-rolo[2,3-d]pyrimidin-2-yl]-(2,4,6-tri-methyl-phenyl)-amine;compound with trifluoro-aceticacid] |  | 2090 | 195 |

Source: patent publication US7307082B2, “Heterocyclic derivatives as CRF antagonists” (Roche Palo Alto LLC, priority 2003, dated 2007)
